Reference: patent US9422302B2 (priority 2013, dated 2016)

How the values were obtained:
δ receptor = δ receptor (Rattus norvegicus, UniProt P33533); details: cited from earlier work
Male, Swiss-Webster mice [1] = test: Hot plate antinociceptive testing (acute, antagonist and tolerance paradigms); type: in vivo; details: for Antinociceptive tolerance development vs. Day 1, hot plate: 15 mg/kg s.c. twice daily for five days, latencies 30 min after administration; for ED50: Mus musculus, sc; for Effect of antagonist pretreatment on UMB 425 antinociception, hot plate: naloxone 1 mg/kg i.p. −30 min or nor-BNI 30 mg/kg i.p. −24 h before UMB 425 15 mg/kg s.c., 30 min
Male, Swiss-Webster mice [2] = test: Tail-flick antinociceptive testing (acute, antagonist and tolerance paradigms); type: in vivo; details: for Antinociceptive tolerance development vs. Day 1, tail-flick: 15 mg/kg s.c. twice daily for five days, latencies 30 min after administration; for ED50: Mus musculus, sc; for Effect of antagonist pretreatment on UMB 425 antinociception, tail-flick: naloxone 1 mg/kg i.p. −30 min or nor-BNI 30 mg/kg i.p. −24 h before UMB 425 15 mg/kg s.c., 30 min
human δ opioid receptor [3] = biological target: T1, human δ opioid receptor (Homo sapiens, UniProt P41143); details: ref (32); cited from earlier work
human μ opioid receptor [4] = biological target: T2, human μ opioid receptor (Homo sapiens, UniProt P35372); test: biochemical; type: binding
T2 construct: expressed in transfected cells; host or cells: CHO cells (membranes)

human κ opioid receptor [5] = biological target: T3, human κ opioid receptor (Homo sapiens, UniProt P41145); test: biochemical; type: binding
T3 construct: expressed in transfected cells; host or cells: CHO cells (membranes)

human μ opioid receptor [6] = biological target: T2, human μ opioid receptor; test: biochemical
human κ opioid receptor [7] = biological target: T3, human κ opioid receptor; test: [35S]GTPγS functional assay, hKOR-CHO membranes; type: biochemical; details: CHO cell membranes, n/e=no effect
human δ opioid receptor [8] = biological target: T1, human δ opioid receptor; test: Opioid receptor binding, [3H]DPDPE competition in hDOR-CHO membranes; parameters: expressed in transfected cells; host or cells: CHO cells (membranes)
human δ opioid receptor [9] = biological target: T1, human δ opioid receptor; test: [35S]GTPγS functional assay, hDOR-CHO membranes (agonism; antagonism of DPDPE, Schild plot); type: biochemical; parameters: expressed in transfected cells; host or cells: CHO cells (membranes)
[10] = 0.5 h, read-out: ED50 Hot Plate, acute treatment paradigm
[11] = read-out: ED50 Hot Plate, Tolerance
[12] = 0.5 h, read-out: ED50 Tail-Flick, acute treatment paradigm
[13] = read-out: ED50 Tail-Flick, Tolerance
[14] = acute vs. tolerance treatment paradigms

Chain of δ receptor (P33533 whole entry): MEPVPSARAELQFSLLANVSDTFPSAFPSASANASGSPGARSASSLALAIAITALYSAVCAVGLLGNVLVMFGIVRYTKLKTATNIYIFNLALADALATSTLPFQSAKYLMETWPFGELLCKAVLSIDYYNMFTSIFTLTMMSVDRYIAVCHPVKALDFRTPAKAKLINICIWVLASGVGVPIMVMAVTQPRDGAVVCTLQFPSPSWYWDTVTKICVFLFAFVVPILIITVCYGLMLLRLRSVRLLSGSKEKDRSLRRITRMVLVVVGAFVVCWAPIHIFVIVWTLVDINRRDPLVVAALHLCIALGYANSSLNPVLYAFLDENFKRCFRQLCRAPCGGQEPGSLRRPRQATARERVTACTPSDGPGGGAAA
T2 sequence (P35372 whole entry): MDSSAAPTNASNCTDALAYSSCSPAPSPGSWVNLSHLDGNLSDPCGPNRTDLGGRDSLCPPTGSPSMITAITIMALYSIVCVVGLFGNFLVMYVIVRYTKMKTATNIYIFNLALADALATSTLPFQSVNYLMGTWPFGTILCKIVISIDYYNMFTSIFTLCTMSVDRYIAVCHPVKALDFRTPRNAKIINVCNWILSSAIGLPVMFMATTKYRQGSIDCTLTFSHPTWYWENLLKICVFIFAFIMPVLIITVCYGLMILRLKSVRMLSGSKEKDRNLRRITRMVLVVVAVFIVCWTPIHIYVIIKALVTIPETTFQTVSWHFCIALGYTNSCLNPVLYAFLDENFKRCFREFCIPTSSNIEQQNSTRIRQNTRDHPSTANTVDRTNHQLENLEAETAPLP
T1 sequence (P41143 whole entry): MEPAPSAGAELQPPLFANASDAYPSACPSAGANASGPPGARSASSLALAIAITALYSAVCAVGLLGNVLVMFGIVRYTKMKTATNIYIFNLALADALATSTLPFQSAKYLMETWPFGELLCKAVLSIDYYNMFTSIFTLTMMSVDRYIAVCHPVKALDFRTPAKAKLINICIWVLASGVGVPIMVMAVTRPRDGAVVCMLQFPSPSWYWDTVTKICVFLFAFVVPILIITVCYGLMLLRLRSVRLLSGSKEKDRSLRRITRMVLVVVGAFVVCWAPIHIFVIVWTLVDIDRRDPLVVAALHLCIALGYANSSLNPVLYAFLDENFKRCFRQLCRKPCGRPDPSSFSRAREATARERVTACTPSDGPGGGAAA
T3 sequence (P41145 whole entry): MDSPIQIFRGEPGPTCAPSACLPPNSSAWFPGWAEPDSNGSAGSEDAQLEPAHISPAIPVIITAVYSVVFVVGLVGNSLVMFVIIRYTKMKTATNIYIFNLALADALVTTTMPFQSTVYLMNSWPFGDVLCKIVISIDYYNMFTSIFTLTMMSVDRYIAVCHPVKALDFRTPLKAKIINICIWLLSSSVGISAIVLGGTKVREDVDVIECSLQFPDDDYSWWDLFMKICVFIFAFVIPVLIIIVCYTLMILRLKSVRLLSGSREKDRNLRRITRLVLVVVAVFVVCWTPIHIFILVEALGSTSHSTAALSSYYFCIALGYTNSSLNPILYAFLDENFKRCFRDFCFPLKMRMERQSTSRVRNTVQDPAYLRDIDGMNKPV

## O=C1/C(=C/c2ccccc2)C[C@@]2(O)[C@H]3Cc4ccc(O)c5c4[C@@]2(CCN3CC2CC2)[C@H]1O5 [(E)-BNTX, (E)-benzylidenenaltrexone]
δ receptor
  Relative % Emax Experimental: 0.00

## CN1CC[C@]23c4c5ccc(O)c4O[C@H]2[C@@H](O)C=C[C@H]3[C@H]1C5 [Morphine, reference compound]
Male, Swiss-Webster mice [1]
  Antinociceptive tolerance development vs. Day 1, hot plate: significantly decreased antinociceptive activity on Day 4 and 5
Male, Swiss-Webster mice [1]; [10]
  ED50: 2.73 mg/kg
Male, Swiss-Webster mice [1]; [11]
  ED50: 21.3 mg/kg
Male, Swiss-Webster mice [2]
  Antinociceptive tolerance development vs. Day 1, tail-flick: significantly decreased antinociceptive activity on Day 4 and 5
Male, Swiss-Webster mice [2]; [12]
  ED50: 6.85 mg/kg
Male, Swiss-Webster mice [2]; [13]
  ED50: 44.1 mg/kg

## Oc1ccc2c3c1O[C@H]1c4[nH]c5ccccc5c4C[C@@]4(O)[C@@H](C2)N(CC2CC2)CC[C@]314 [Naltrindole]
δ receptor
  Relative % Emax Experimental: 0.00
Human δ opioid receptor [3]
  pA2 δ (literature): 10.92

## CN1CC[C@]23c4c5ccc(O)c4O[C@H]2c2[nH]c4ccccc4c2C[C@@]3(O)[C@H]1C5 [Oxymorphindole]
δ receptor
  Relative % Emax Experimental: 0.12

## CN1CC[C@]23c4c5ccc(O)c4O[C@H]2C(=O)C2(Cc4ccccc4C2)C[C@@]3(O)[C@H]1C5 [SIOM, 7-spiroindanyloxymorphone]
δ receptor
  Relative % Emax Experimental: 0.18

## CN1CCC23c4c5ccc(O)c4OC2(CO)C(=O)CCC3(O)C1C5 (stereo not drawn) [UMB 425, 4a,9-dihydroxy-7a-(hydroxymethyl)-3-methyl-2,3,4,4a,5,6-hexahydro-1H-4,12-methanobenzofuro[3,2-e]isoquinolin-7(7aH)-one]
Human μ opioid receptor [4]
  Ki: 3.2 ± 0.14 nM
Human κ opioid receptor [5]
  Ki: 212 ± 21 nM
  κ/μ binding affinity ratio: 66
Human μ opioid receptor [6]
  % Emax μ: 73±7.3%
  EC50: 35 ± 3.7 nM
Human μ opioid receptor [6]; read-out: % Emax ± S.E.M. μ
  Emax: 73 ± 7.3%
Human κ opioid receptor [7]
  EC50 ± S.E.M. κ (agonist activity): no significant agonist activity and n/e
Male, Swiss-Webster mice [1]
  Antinociceptive tolerance development vs. Day 1, hot plate: significantly decreased antinociceptive activity on Day 4 and 5
Male, Swiss-Webster mice [1]; Day 4 and 5, 15 mg/kg s.c. twice daily
  Antinociceptive activity compared with morphine in tolerance paradigm, hot plate: statistically greater antinociceptive activity than morphine
Male, Swiss-Webster mice [1]; [10]
  ED50: 4.3 mg/kg
Male, Swiss-Webster mice [1]; [11]
  ED50: 13 mg/kg
Male, Swiss-Webster mice [1]; [14]
  Shift in ED50, Hot Plate: 3.0 fold
Male, Swiss-Webster mice [1]; tolerance paradigm
  Reduction in ED50 shift compared to morphine, hot plate: 2.6 fold
Male, Swiss-Webster mice [2]
  Antinociceptive tolerance development vs. Day 1, tail-flick: n.s.
Male, Swiss-Webster mice [2]; Day 5, 15 mg/kg s.c. twice daily
  Antinociceptive activity compared with morphine in tolerance paradigm, tail-flick: statistically greater antinociceptive activity than morphine
Male, Swiss-Webster mice [2]; [12]
  ED50: 8.83 mg/kg
Male, Swiss-Webster mice [2]; [13]
  ED50: 11.6 mg/kg
Male, Swiss-Webster mice [2]; [14]
  Shift in ED50, Tail-Flick: 1.3 fold
Male, Swiss-Webster mice [2]; tolerance paradigm
  Reduction in ED50 shift compared to morphine, tail-flick: 4.9 fold
Human δ opioid receptor [8]
  Ki: 208 ± 18 nM
Human δ opioid receptor [8]; ratio of Ki values
  δ/μ binding affinity ratio: 65
Human δ opioid receptor [9]
  Kb: 759 nM
Human δ opioid receptor [9]; Schild plot, DPDPE dose-response curves with 200 nM, 600 nM, 2 μM UMB 425
  pA2 δ: 6.12
Human δ opioid receptor [9]; [35S]GTPγS, CHO cell membranes, n/e=no effect
  EC50 ± S.E.M. δ (agonist activity): no significant agonist activity and n/e

## C=CCN1CC[C@]23c4c5ccc(O)c4O[C@H]2C(=O)CC[C@@]3(O)[C@H]1C5 [naloxone, reference compound]
Male, Swiss-Webster mice [1]
  Effect of antagonist pretreatment on UMB 425 antinociception, hot plate: significantly attenuated UMB 425-mediated antinociception
Male, Swiss-Webster mice [2]
  Effect of antagonist pretreatment on UMB 425 antinociception, tail-flick: significantly attenuated UMB 425-mediated antinociception

## Oc1ccc2c3c1O[C@H]1c4[nH]c5c(c4C[C@@]4(O)[C@@H](C2)N(CC2CC2)CC[C@]314)C[C@@]1(O)[C@H]2Cc3ccc(O)c4c3[C@@]1(CCN2CC1CC1)[C@H]5O4 [nor-BNI, norbinaltorphimine, reference compound]
Male, Swiss-Webster mice [1]
  Effect of antagonist pretreatment on UMB 425 antinociception, hot plate: failed to significantly attenuate UMB 425-mediated antinociception
Male, Swiss-Webster mice [2]
  Effect of antagonist pretreatment on UMB 425 antinociception, tail-flick: failed to significantly attenuate UMB 425-mediated antinociception
